Data set [1] can be described thus: pH shift dissolution (precipitation) test. It is filed as physicochemical.
Protocol: The formulations described in the examples above were dissoluted in media comprising 500 ml 0.07N HCl (approximately pH 1.5) and sodium chloride (0.2% w/v) for one hour at 37° C. (paddle speed 100 rpm). A 5 ml sample was taken at 60 minutes and the media replaced.
10 ml of a 2.5M KH2PO4/16.72% (w/v) NaOH solution was then added to shift the pH to 6.5. 5ml samples were then removed with a plastic syringe at 2, 5, 15, 30, 45 and 60 minutes after pH adjustment and media replaced after every sampling time point. Each sample was centrifuged (14,000 rpm) at ambient temperature for 15 minutes and then analysed by HPLC using the following conditions:
Data set [2] in a line: pH-dependent aqueous solubility of the Agent. It is filed as physicochemical. As to conditions: free-base form.

`COc1cc2ncnc(Nc3ccc(F)c(Cl)c3)c2cc1OCCCN1CCOCC1` [Agent, 4-(3′-chloro-4′-fluoroanilino)-7-methoxy-6-(3-morpholinopropoxy)quinazoline]: in data set [1] (2 mins after shift from pH 1.5 to pH 6.5, HPLC of centrifuged sample), the “% Agent in solution at 2 mins after pH adjustment to pH 6.5” value is given as 6.5%. The “% Agent in solution at 5 mins after pH adjustment to pH 6.5” value in data set [1] (5 mins after shift from pH 1.5 to pH 6.5, HPLC of centrifuged sample) is 6.9%. The “% Agent in solution after 60 mins in acidic media (~pH 1.5)” value in data set [1] (500 ml 0.07N HCl, 0.2% w/v NaCl, 37° C., before pH shift, HPLC) came to 102.6%. Further, in data set [2] (above pH 7), the “solubility in aqueous media” value is “practically insoluble”. The “aqueous solvent required to dissolve 1 g of Agent” value in data set [2] (pH 6) was at least 10000 mL.
